Measured values reported in publication PMC3100853 (2010).

Columns and labels:
[1] = system: FB1 32 (DNA, aptamer) ATACCAGCTTATTCAATTAATGTACGATGTGTGGGCAACATGAGTATGTCGTGTGATATCTAGATGAGGTAGCGGTGGAGATAGTAAGTGCAATCT; experiment: magnetic bead binding, percent DNA eluted (fluorescence); conditions: 100 mM NaCl, 5 mM KCl, 2 mM MgCl2, 1 mM CaCl2; 20 mM Tris pH 7.6, room temperature; immobilised compound; 9-15 pmol DNA, 2 × 10^8 beads
[2] = system: FB1 31 (DNA, aptamer) ATACCAGCTTATTCAATTCGGGGACGTGTATACCAGCTTATTCAATTCACAGTTATGTCCTATACCAGCTTATTCAATTAGATAGTAAGTGCAATCT; experiment: as above; conditions: 100 mM NaCl, 5 mM KCl, 2 mM MgCl2, 1 mM CaCl2; 20 mM Tris pH 7.6, room temperature; immobilised compound; 9-15 pmol DNA, 2 × 10^8 beads
[3] = system: FB1 39 (DNA, aptamer) ATACCAGCTTATTCAATTAATCGCATTACCTTATACCAGCTTATTCAATTACGTCTGCACATACCAGCTTATTCAATTAGATAGTAAGTGCAATCT; experiment: magnetic bead binding, fluorescence of eluted DNA; conditions: 100 mM NaCl, 5 mM KCl, 2 mM MgCl2, 1 mM CaCl2; 20 mM Tris pH 7.6, room temperature; immobilised compound; aptamer 1 nM to 1 μM
[4] = system: FB1 23 (DNA, aptamer) ATACCAGCTTATTCAATTGCGGATGCGTAAATGACGATAAACATAGATGGGGTATATCGCGATGCGACAGGGTGTAGATAGTAAGTGCAATCT; experiment: magnetic bead binding, percent DNA eluted (fluorescence); conditions: 100 mM NaCl, 5 mM KCl, 2 mM MgCl2, 1 mM CaCl2; 20 mM Tris pH 7.6, room temperature; immobilised compound; 9-15 pmol DNA, 2 × 10^8 beads
[5] = system: FB1 14 (DNA, aptamer) ATACCAGCTTATTCAATTCTATACGGAGTGGATATCGATCTGTAACGTGAGTGAGATAATGTGATGCATAGTCGTGGAGATAGTAAGTGCAATCT; experiment: as above; conditions: 100 mM NaCl, 5 mM KCl, 2 mM MgCl2, 1 mM CaCl2; 20 mM Tris pH 7.6, room temperature; immobilised compound; 9-15 pmol DNA, 2 × 10^8 beads
[6] = system: FB1 16 (DNA, aptamer) ATACCAGCTTATTCAATTCATCCAGTAACAAACACATAAGTAACGGCGATATGTCAAAGCGGTATCGGCTACAGATGAGATAGTAAGTGCAATCT; experiment: as above; conditions: 100 mM NaCl, 5 mM KCl, 2 mM MgCl2, 1 mM CaCl2; 20 mM Tris pH 7.6, room temperature; immobilised compound; 9-15 pmol DNA, 2 × 10^8 beads

## CCCC[C@@H](C)[C@@H](OC(=O)C[C@@H](CC(=O)O)C(=O)O)[C@H](C[C@@H](C)C[C@H](O)CCCC[C@@H](O)C[C@H](O)[C@H](C)N)OC(=O)C[C@@H](CC(=O)O)C(=O)O
[1]
  binding: yes
[2]
  binding: yes
[3]
  KD: 100 ± 30 nM
[4]
  binding: yes
[5]
  binding: yes
[6]
  binding: yes
